Values of other authors in CN114917233A, “一种包含核苷类似物的药物组合物及其制备方法和应用” (Suzhou Vigonvita Life Sciences Co Ltd, priority 2022, dated 2022).

Tests used:
SARS-CoV-2 [1] = tested on: SARS-CoV-2
SARS-CoV-2 [2] = details: 5 μM, in vitro

Compound	inhibition of SARS-CoV-2 replication (in words) (SARS-CoV-2 [1])	inhibition of virus replication compared with RDV (in words) (SARS-CoV-2 [1]; versus RDV)	oral bioavailability (in words)	replication inhibition rate (SARS-CoV-2 [2]) [%]
N#C[C@@]1(c2ccc3c(N)ncnn23)O[C@H](CO)[C@@H](O)[C@H]1O [GS-441524]	具有抑制作用	更强的病毒复制抑制作用	低	
CCC(CC)COC(=O)[C@H](C)N[P@](=O)(OC[C@H]1O[C@@](C#N)(c2ccc3c(N)ncnn23)[C@H](O)[C@@H]1O)Oc1ccccc1 [RDV]	具有抑制作用			
CC(C)C(=O)OC[C@H]1O[C@@](C#N)(c2ccc3c(N)ncnn23)[C@H](OC(=O)C(C)C)[C@@H]1OC(=O)C(C)C [式I化合物, (2R,3R,4R,5R)-2-(4-氨基吡咯并[2,1-f][1,2,4]三嗪-7-基)-2-氰基-5-((异丁酰氧基)甲基)四氢呋喃-3,4-二基双(2-甲基丙酸酯)]				99
